Key:
Type in all cases: in vivo
[1] = system: pigweed (Amaranthus retroflexus); experiment: Test A postemergence
In short: (§1)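 Visual injury scores from 0, no effect, to 100, complete control, were assigned versus untreated controls roughly 10 d after treatment in the greenhouse. Test chemicals, formulated with surfactant in a non-phytotoxic solvent, were applied to planted seeds as a preemergence soil spray or postemergence to one- to two-leaf plants 2 to 10 cm tall, in loam–sand soil.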

Kochia (Kochia scoparia) [2] = experiment: Test A postemergence
In short: as §1

[3] = system: giant foxtail (Setaria faberii); experiment: Test A postemergence
In short: as §1

[4] = system: ragweed (common ragweed, Ambrosia elatior); experiment: Test A postemergence
In short: as §1

[5] = system: wheat (Triticum aestivum); experiment: Test A postemergence
In short: as §1

corn (Zea mays) = experiment: Test A postemergence
In short: as §1

[6] = system: blackgrass (Alopecurus myosuroides); experiment: Test A postemergence
In short: as §1

[7] = system: barnyardgrass (Echinochloa crus-galli); experiment: Test A postemergence
In short: as §1

[8] = system: Galium (catchweed bedstraw, Galium aparine); experiment: Test A postemergence
In short: as §1

[9] = system: ryegrass, Italian (Italian ryegrass, Lolium multiflorum); experiment: Test A postemergence
In short: as §1

[10] = system: pigweed (Amaranthus retroflexus); experiment: Test A preemergence; settings: Preemergence; for Plant response rating, Pigweed: 125 g ai/ha, visual injury after approximately 10 d, 0 to 100 scale where 0 is no effect and 100 is complete control; for Pigweed plant response rating (0 to 100 scale, 0 is no effect, 100 is complete control): 500 g ai/ha, visual injury approx. 10 d
Kochia (Kochia scoparia) [11] = experiment: Test A preemergence; settings: Preemergence; for Plant response rating, Kochia: 125 g ai/ha, visual injury after approximately 10 d, 0 to 100 scale where 0 is no effect and 100 is complete control; for Kochia plant response rating (0 to 100 scale, 0 is no effect, 100 is complete control): 500 g ai/ha, visual injury approx. 10 d
In short: as §1

[12] = system: giant foxtail (Setaria faberii); experiment: Test A preemergence; settings: Preemergence; for Plant response rating, Foxtail, Giant: 125 g ai/ha, visual injury after approximately 10 d, 0 to 100 scale where 0 is no effect and 100 is complete control; for Foxtail, Giant plant response rating (0 to 100 scale, 0 is no effect, 100 is complete control): 500 g ai/ha, visual injury approx. 10 d
In short: as §1

[13] = system: ragweed (common ragweed, Ambrosia elatior); experiment: Test A preemergence; settings: Preemergence; for Plant response rating, Ragweed: 125 g ai/ha, visual injury after approximately 10 d, 0 to 100 scale where 0 is no effect and 100 is complete control
In short: as §1

[14] = system: barnyardgrass (Echinochloa crus-galli); experiment: Test A preemergence; settings: Preemergence; for Plant response rating, Barnyardgrass: 125 g ai/ha, visual injury after approximately 10 d, 0 to 100 scale where 0 is no effect and 100 is complete control; for Barnyardgrass plant response rating (0 to 100 scale, 0 is no effect, 100 is complete control): 500 g ai/ha, visual injury approx. 10 d
In short: as §1

[15] = system: ryegrass, Italian (Italian ryegrass, Lolium multiflorum); experiment: Test A preemergence; settings: Preemergence; for Plant response rating, Ryegrass, Italian: 125 g ai/ha, visual injury after approximately 10 d, 0 to 100 scale where 0 is no effect and 100 is complete control; for Ryegrass, Italian plant response rating (0 to 100 scale, 0 is no effect, 100 is complete control): 500 g ai/ha, visual injury approx. 10 d
In short: as §1

[16] = system: sedge, umbrella (small-flower umbrella sedge, Cyperus difformis); experiment: Test B flooded paddy test; settings: Flood, 250 g ai/ha; 0 to 100 scale where 0 is no effect and 100 is complete control; 13 to 15 d
In short: (§2)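 Response scored visually against untreated controls, 0 = no effect and 100 = complete control, 13–15 d after treatment in the greenhouse. Compounds added to paddy water held 3 cm above soil surface. Treatment given at 2-leaf stage.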

[17] = system: ducksalad (Heteranthera limosa); experiment: Test B flooded paddy test; settings: Flood, 250 g ai/ha; 0 to 100 scale where 0 is no effect and 100 is complete control; 13 to 15 d
In short: as §2

[18] = system: barnyardgrass (Echinochloa crus-galli); experiment: Test B flooded paddy test; settings: Flood, 250 g ai/ha; 0 to 100 scale where 0 is no effect and 100 is complete control; 13 to 15 d
In short: as §2

rice (Oryra sativa) = experiment: Test B flooded paddy test; settings: Flood, 250 g ai/ha; 0 to 100 scale where 0 is no effect and 100 is complete control; 13 to 15 d
In short: as §2

[19] = 125 g ai/ha, postemergence, visual rating after approx. 10 d, 0 to 100 scale (0 no effect, 100 complete control)
[20] = Postemergence, 500 g ai/ha, 0 to 100 scale where 0 is no effect and 100 is complete control

O=C1NCC(c2cc(C(F)(F)F)cc(C(F)(F)F)c2)C1C(=O)Nc1ccc(F)cc1F (centres unmarked) [Compound 589]
Plant response rating, Pigweed [1, 19]: 0 | Plant response rating, Pigweed [1, 20]: 0 | Plant response rating, Kochia (Kochia (Kochia scoparia) [2]; [19]): 0 | Plant response rating, Kochia (Kochia (Kochia scoparia) [2]; [20]): 0 | Plant response rating, Foxtail, Giant [3, 19]: 80 | Plant response rating, Foxtail, Giant [3, 20]: 80 | Plant response rating, Ragweed [4, 19]: 0 | Plant response rating, Ragweed [4, 20]: 0 | Plant response rating, Wheat [5, 19]: 0 | Plant response rating, Wheat [5, 20]: 50 | Plant response rating, Corn (corn (Zea mays); [19]): 10 | Plant response rating, Corn (corn (Zea mays); [20]): 60 | Plant response rating, Blackgrass [6, 19]: 20 | Plant response rating, Blackgrass [6, 20]: 40 | Plant response rating, Barnyardgrass [7, 19]: 60 | Plant response rating, Barnyardgrass [7, 20]: 80 | Plant response rating, Galium [8, 19]: 0 | Plant response rating, Galium [8, 20]: 0 | Plant response rating, Ryegrass, Italian [9, 19]: 20 | Plant response rating, Ryegrass, Italian [9, 20]: 40 | Plant response rating, Pigweed [10]: 0 | Pigweed plant response rating (0 to 100 scale, 0 is no effect, 100 is complete control) [10]: 0 | Plant response rating, Kochia (Kochia (Kochia scoparia) [11]): 0 | Kochia plant response rating (0 to 100 scale, 0 is no effect, 100 is complete control) (Kochia (Kochia scoparia) [11]): 0 | Plant response rating, Foxtail, Giant [12]: 80 | Foxtail, Giant plant response rating (0 to 100 scale, 0 is no effect, 100 is complete control) [12]: 90 | Plant response rating, Ragweed [13]: 0 | Ragweed plant response rating (0 to 100 scale, 0 is no effect, 100 is complete control) ([13]; 500 g ai/ha, visual injury approx. 10 d): 0 | Plant response rating, Barnyardgrass [14]: 80 | Barnyardgrass plant response rating (0 to 100 scale, 0 is no effect, 100 is complete control) [14]: 90 | Plant response rating, Ryegrass, Italian [15]: 0 | Ryegrass, Italian plant response rating (0 to 100 scale, 0 is no effect, 100 is complete control) [15]: 40 | Plant response rating, Sedge, Umbrella [16]: 0 | Plant response rating, Ducksalad [17]: 70 | Plant response rating, Barnyardgrass [18]: 60 | Plant response rating, Rice (rice (Oryra sativa)): 20

O=C1NCC(c2cccc(C(F)(F)F)c2F)C1C(=O)Nc1ccccc1F (centres unmarked) [Compound 590]
Plant response rating, Pigweed [1, 19]: 0 | Plant response rating, Pigweed [1, 20]: 0 | Plant response rating, Kochia (Kochia (Kochia scoparia) [2]; [19]): 0 | Plant response rating, Kochia (Kochia (Kochia scoparia) [2]; [20]): 30 | Plant response rating, Foxtail, Giant [3, 19]: 90 | Plant response rating, Foxtail, Giant [3, 20]: 90 | Plant response rating, Ragweed [4, 19]: 0 | Plant response rating, Ragweed [4, 20]: 0 | Plant response rating, Wheat [5, 19]: 20 | Plant response rating, Wheat [5, 20]: 70 | Plant response rating, Corn (corn (Zea mays); [19]): 50 | Plant response rating, Corn (corn (Zea mays); [20]): 70 | Plant response rating, Blackgrass [6, 19]: 50 | Plant response rating, Blackgrass [6, 20]: 70 | Plant response rating, Barnyardgrass [7, 19]: 90 | Plant response rating, Barnyardgrass [7, 20]: 90 | Plant response rating, Galium [8, 19]: 20 | Plant response rating, Galium [8, 20]: 30 | Plant response rating, Ryegrass, Italian [9, 19]: 30 | Plant response rating, Ryegrass, Italian [9, 20]: 30 | Plant response rating, Pigweed [10]: 0 | Pigweed plant response rating (0 to 100 scale, 0 is no effect, 100 is complete control) [10]: 0 | Plant response rating, Kochia (Kochia (Kochia scoparia) [11]): 0 | Kochia plant response rating (0 to 100 scale, 0 is no effect, 100 is complete control) (Kochia (Kochia scoparia) [11]): 20 | Plant response rating, Foxtail, Giant [12]: 90 | Foxtail, Giant plant response rating (0 to 100 scale, 0 is no effect, 100 is complete control) [12]: 90 | Plant response rating, Ragweed [13]: 0 | Plant response rating, Barnyardgrass [14]: 90 | Barnyardgrass plant response rating (0 to 100 scale, 0 is no effect, 100 is complete control) [14]: 90 | Plant response rating, Ryegrass, Italian [15]: 0 | Ryegrass, Italian plant response rating (0 to 100 scale, 0 is no effect, 100 is complete control) [15]: 30 | Plant response rating, Sedge, Umbrella [16]: 0 | Plant response rating, Ducksalad [17]: 90 | Plant response rating, Barnyardgrass [18]: 60 | Plant response rating, Rice (rice (Oryra sativa)): 0

— US12077503B2, “Substituted cyclic amides and their use as herbicides” (FMC CORPORATION, priority 2015, dated 2024)
